According to patent publication US10617682B2 (ROSEMAN UNIVERSITY OF HEALTH SCIENCES, priority 2017, dated 2020):

Key:
[1] = oral route; cited from earlier work
[2] = Forced degradation studies by HPLC; format: physicochemical; details: 0.1 mg/mL
Procedure: The specificity of the HPLC method to degradation products was also assessed by subjecting prochlorperazine to various forced degradation conditions such as hydrolysis, oxidation, photodegradation, thermal degradation and UV irradiation.
The HPLC method used in this study was able to resolve prochlorperazine sulfoxide distinctly from prochlorperazine edisylate and trifluoperazine. […] Furthermore, forced degradation studies were also performed to assess any other degradation pathways that may interfere with prochlorperazine assay.

[3] = HPLC potency of freshly prepared solution against USP standard prochlorperazine maleate; format: physicochemical
Procedure: The mobile phase consisted of the ion-pairing solution, acetonitrile, and methanol (50:40:10). The ion pairing solution was previously prepared by dissolving 4.33 g of sodium-1-octanesulfonic acid and 4.0 mL glacial acetic acid in 1000 mL of water. The chromatographic separation was achieved using a 3.9 mm×15 cm L1 (C18) column with 5 μm particle size. The flow-rate was 1.5 mL per minute and detection wavelength was 254 nm. The HPLC analysis was carried out by injecting 20 μL of sample into the Waters Alliance HPLC with Waters photodiode array (PDA) detector. Data acquisition and analysis was performed using WATERS® EMPOWER 3 software. The HPLC method was validated according to International Council on Harmonization (ICH) guidelines for various parameters including: linearity, accuracy and precision, robustness, and ruggedness.

| Compound | absorption [1] | degradation under acid hydrolysis ([2]; 0.1 M hydrochloric acid 1 hour) | degradation under oxidation ([2]; 0.1 M hydrogen peroxide overnight) | degradation under base hydrolysis ([2]; 0.1 M sodium hydroxide 1 hour) | degradation under thermal degradation ([2]; 60° C. overnight) | degradation under photodegradation ([2]; laboratory light overnight) | degradation under UV irradiation ([2]; ultraviolet radiation overnight) | potency compared with USP standard prochlorperazine maleate [3] [%] |
| --- | --- | --- | --- | --- | --- | --- | --- | --- |
| CN1CCN(CCCN2c3ccccc3Sc3ccc(Cl)cc32)CC1 [prochlorperazine, 2-chloro-10-[3-(4-methylpiperazin-1-yl)propyl]phenothiazine] | low and variable absorption | did not show prochlorperazine degradation | showed degradation | did not show prochlorperazine degradation | did not show prochlorperazine degradation | did not show prochlorperazine degradation | showed degradation |  |
| CN1CCN(CCCN2c3ccccc3Sc3ccc(Cl)cc32)CC1 [prochlorperazine edisylate] |  |  |  |  |  |  |  | 99.7±2.3 |
